Results taken from ChEMBL document CHEMBL1156550, “Synthesis and pharmacological evaluation of pentacyclic 6a,7-dihydrodiindole and 2,3-dihydrodiindole derivatives as novel melatoninergic ligands” (Bioorg Med Chem, 2008).

Assays:
[1] = target: T1, Melatonin receptor type 1B (Homo sapiens, UniProt P49286); assay: Displacement of 2-[125I]iodomelatonin from human melatonin MT2 receptor expressed in CHO cells; format: cell-based
T1 sequence (P49286 whole entry): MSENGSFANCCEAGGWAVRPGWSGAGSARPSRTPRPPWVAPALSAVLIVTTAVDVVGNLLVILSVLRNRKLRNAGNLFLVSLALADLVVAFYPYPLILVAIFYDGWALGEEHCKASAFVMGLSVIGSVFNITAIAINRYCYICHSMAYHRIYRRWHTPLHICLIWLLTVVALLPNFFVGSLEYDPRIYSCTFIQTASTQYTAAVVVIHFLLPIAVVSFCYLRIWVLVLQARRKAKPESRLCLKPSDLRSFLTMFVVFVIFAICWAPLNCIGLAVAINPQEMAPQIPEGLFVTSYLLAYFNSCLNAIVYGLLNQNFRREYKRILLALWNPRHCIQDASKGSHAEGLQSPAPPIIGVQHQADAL

[2] = target: Melatonin receptor type 1A (Homo sapiens, UniProt P48039); assay: Displacement of 2-[125I]iodomelatonin from human melatonin MT1 receptor expressed in CHO cells; format: cell-based
Sequence of Melatonin receptor type 1A (P48039 whole entry): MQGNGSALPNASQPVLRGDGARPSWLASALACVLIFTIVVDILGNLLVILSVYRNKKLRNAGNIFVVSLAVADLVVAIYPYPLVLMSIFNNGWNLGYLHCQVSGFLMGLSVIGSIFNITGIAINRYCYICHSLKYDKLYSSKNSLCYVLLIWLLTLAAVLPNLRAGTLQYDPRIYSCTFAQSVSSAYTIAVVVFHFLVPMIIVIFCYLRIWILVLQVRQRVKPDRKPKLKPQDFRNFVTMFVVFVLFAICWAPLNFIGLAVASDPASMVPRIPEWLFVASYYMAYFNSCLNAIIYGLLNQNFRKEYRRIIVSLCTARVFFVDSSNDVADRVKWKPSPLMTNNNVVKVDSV

Homo sapiens = organism: Homo sapiens; assay: Selectivity ratio of Ki for human melatonin MT1 receptor to Ki for human melatonin MT2 receptor

COc1ccc2[nH]c(CN3c4ccccc4C[C@H]3CO)c(CCNC(C)=O)c2c1
Ki [1]: 7.8 nM | Ki [2]: 9.8 nM | Ratio Ki (Homo sapiens): 1.25

COc1ccc2c(c1)CC(CO)N2Cc1[nH]c2ccc(OC)cc2c1CCNC(C)=O (racemic)
Ki [1]: 33.6 nM | Ki [2]: 34.5 nM | Ratio Ki (Homo sapiens): 1.03

CC(=O)NCCc1c2n(c3ccccc13)CC1Cc3ccccc3N1C2 (stereo unspecified)
Ki [1]: 1700 nM | Ki [2]: 1000 nM

COc1ccc2c(c1)c(CCNC(C)=O)c1n2CC2Cc3ccccc3N2C1 (stereo unspecified)
Ki [1]: 65.2 nM | Ki [2]: 319 nM | Ratio Ki (Homo sapiens): 4.89

COc1ccc2[nH]c(CN3c4ccccc4CC3CO)c(CCNC(C)=O)c2c1 (racemic)
Ki [1]: 36.2 nM | Ki [2]: 17.5 nM | Ratio Ki (Homo sapiens): 0.48

COc1ccc2c(c1)CC1Cn3c(c(CCNC(C)=O)c4cc(OC)ccc43)CN21 (stereo unspecified)
Ki [1]: 410 nM | Ki [2]: 1800 nM
